Results reported in ChEMBL document CHEMBL5725462, “Substituted triazolopyridines” (2017).

Biological target: T1, Dual specificity protein kinase TTK (Homo sapiens, UniProt P33981)
T1 sequence (P33981 whole entry): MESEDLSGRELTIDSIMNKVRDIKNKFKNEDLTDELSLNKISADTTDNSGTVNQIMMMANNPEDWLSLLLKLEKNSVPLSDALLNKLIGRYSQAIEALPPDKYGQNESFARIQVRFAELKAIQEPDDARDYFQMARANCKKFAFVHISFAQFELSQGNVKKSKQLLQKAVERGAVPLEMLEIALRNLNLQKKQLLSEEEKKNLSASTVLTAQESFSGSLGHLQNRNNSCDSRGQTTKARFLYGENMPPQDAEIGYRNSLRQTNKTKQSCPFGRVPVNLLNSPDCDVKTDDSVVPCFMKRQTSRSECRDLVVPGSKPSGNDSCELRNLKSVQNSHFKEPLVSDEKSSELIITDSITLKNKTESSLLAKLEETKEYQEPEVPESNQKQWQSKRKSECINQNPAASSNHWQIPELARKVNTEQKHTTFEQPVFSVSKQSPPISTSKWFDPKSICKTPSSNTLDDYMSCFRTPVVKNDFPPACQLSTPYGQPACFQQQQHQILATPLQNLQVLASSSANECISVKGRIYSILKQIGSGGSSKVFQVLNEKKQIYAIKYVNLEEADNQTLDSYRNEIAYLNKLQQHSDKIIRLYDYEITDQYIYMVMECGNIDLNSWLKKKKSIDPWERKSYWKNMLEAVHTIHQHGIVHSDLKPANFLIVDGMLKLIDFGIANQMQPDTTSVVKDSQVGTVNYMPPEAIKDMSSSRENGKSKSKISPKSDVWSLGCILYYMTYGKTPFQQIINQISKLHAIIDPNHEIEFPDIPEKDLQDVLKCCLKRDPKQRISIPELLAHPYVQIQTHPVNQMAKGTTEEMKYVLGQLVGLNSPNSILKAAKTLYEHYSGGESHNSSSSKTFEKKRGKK
Test: The concentration of Mps-1 in the assay was adjusted to the activity of the enzyme lot and was chosen appropriate to have the assay in the linear range, typical enzyme concentrations were in the range of about 1 nM (final conc. in the 5 μl assay volume).

## COc1cc(C(=O)N2CC3(COC3)C2)ccc1Nc1nc2ccc(-c3ccc(C(=O)NCc4ccc(F)cc4)nc3)cn2n1
  IC50: < 1 nM
